Assay results published in paper PMC8225008, “Development of Non-Ethoxypropanoic Acid Type Cryptochrome Inhibitors with Circadian Molecular Clock-Enhancing Activity by Bioisosteric Replacement” (Pharmaceuticals, 2021).

Target: T1, CYP1A2 (Homo sapiens, UniProt P05177)
T1 construct: pooled human liver microsomes (HLMs, XTreme 200, XenoTech, Lenexa, KS, USA); tissue XenoTech XTreme 200; host or cells: pooled human liver microsomes
T1 sequence (P05177 1-516): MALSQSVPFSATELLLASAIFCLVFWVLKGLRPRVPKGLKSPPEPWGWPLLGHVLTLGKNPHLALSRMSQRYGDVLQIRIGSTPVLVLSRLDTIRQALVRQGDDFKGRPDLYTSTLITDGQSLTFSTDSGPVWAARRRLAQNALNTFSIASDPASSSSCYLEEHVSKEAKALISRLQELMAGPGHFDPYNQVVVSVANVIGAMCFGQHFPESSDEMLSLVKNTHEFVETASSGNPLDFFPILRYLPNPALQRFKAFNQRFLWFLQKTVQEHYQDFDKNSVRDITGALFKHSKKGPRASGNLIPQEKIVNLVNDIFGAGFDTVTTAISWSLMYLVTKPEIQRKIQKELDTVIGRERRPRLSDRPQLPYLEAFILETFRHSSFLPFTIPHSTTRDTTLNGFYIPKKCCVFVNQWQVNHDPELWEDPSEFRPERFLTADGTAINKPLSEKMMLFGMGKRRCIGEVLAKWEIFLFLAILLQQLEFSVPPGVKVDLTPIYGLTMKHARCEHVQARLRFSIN
Test: Cytochrome P450 inhibition assay (cocktail method, human liver microsomes), phenacetin O-deethylation
Format: in vitro ADME
Procedure: The inhibitory effects of KS15 and compound 5d on the metabolism of five cytochrome P450 (P450) probe substrates were evaluated using previous methods with slight modifications. The following P450 probe substrates were used: phenacetin (100 μM) for CYP1A2, tolbutamide (100 μM) for CYP2C9, omeprazole (20 μM) for CYP2C19, dextromethorphan (5 μM) for CYP2D6, and midazolam (5 μM) for CYP3A. Incubation mixtures containing pooled human liver microsomes (HLMs, XTreme 200, XenoTech, Lenexa, KS, USA), P450 probe substrates, and KS15 or compound 5d (final concentrations: 0, 0.5, 2, 5, 20, and 50 μM) were preincubated for 5 min at 37 °C. […] After centrifugation at 18,000× g (5 min, 4 °C), supernatant aliquots were analyzed by liquid chromatography-tandem mass spectrometry (LC-MS/MS). […]
All metabolites and IS were separated on a Kinetex C18 column (100 mm × 2.1 mm, 2.6 μm ID., Phenomenex, Torrance, CA, USA) and analyzed using an LC-MS/MS system (LCMS 8060, Shimadzu, Tokyo, Japan) equipped with an electrospray ionization (ESI) interface. […]
The EC50 values for luciferase reporter assay were calculated based on a logistic four-parametric equation using the mean values of intrinsic activation (SigmaPlot 10.0; Systat Software Inc., San Jose, CA, USA). […] Pharmacokinetic parameters were calculated using non-compartmental analysis (WinNonlin v.8.3; Pharsight, Mountain View, CA, USA). […]

With `COC(=O)COc1cccc(C(C)=NOCc2ccc([N+](=O)[O-])cc2)c1` [Compound 5d, Methyl 2-(3-(1-(((4-nitrobenzyl)oxy)imino)ethyl)phenoxy)acetate] the IC50 was greater than 50 µM.
